Measured values taken from patent US7138361B2, “Herbicidal heterocycles” (E. I. du Pont de Nemours and Company, priority 2000, dated 2006).

Assays:
Type in all cases: in vivo
[1] = tested on: duck salad (Heteranthera limosa); experiment: Test C flooded paddy test; conditions: for Ducksalad plant response rating: Flooded Paddy, scale 0 to 100, 0 no effect, 100 complete control; for Plant response rating, Ducksalad: flooded paddy test, scale 0 to 100 (0 no effect, 100 complete control)
Procedure, shortened: (§1)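 Each species was cultivated to 2 leaves in flooded paddy pots, then treated. After a greenhouse period of 12–14 days, the plants were scored visually relative to controls from 0 (no effect) to 100 (complete control).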

[2] = tested on: smallflower flatsedge (Cyperus difformis); experiment: Test C flooded paddy test; conditions: for Flatsedge plant response rating: Flooded Paddy, scale 0 to 100, 0 no effect, 100 complete control; for Plant response rating, Flatsedge: flooded paddy test, scale 0 to 100 (0 no effect, 100 complete control)
Procedure, shortened: as §1

[3] = tested on: barnyardgrass (Echinochloa crus-galli); experiment: Test C flooded paddy test; conditions: for Barnyardgrass plant response rating: Flooded Paddy, scale 0 to 100, 0 no effect, 100 complete control; for Plant response rating, Barnyardgrass: flooded paddy test, scale 0 to 100 (0 no effect, 100 complete control)
Procedure, shortened: as §1

Nightshade = experiment: Test C preemergence; conditions: scale 0 to 100, 0 no effect, 100 complete control
[4] = tested on: Surinam grass (Brachiaria decumbens); experiment: Test C preemergence; conditions: for Plant response rating, Surinam grass: scale 0 to 100, 0 no effect, 100 complete control; for Plant response rating (0 to 100), Surinam grass: preemergence, visual evaluation after 12 to 14 days
Procedure, shortened: (§2)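 Pre- and postemergence treatments used a non-phytotoxic solvent/surfactant formulation; post-treated plants measured 2 to 18 cm. Greenhouse hold 12–14 d; % control estimated visually relative to controls.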

[5] = tested on: yellow nutsedge (Cyperus esculentus); experiment: Test C preemergence; conditions: for Plant response rating, Nutsedge: scale 0 to 100, 0 no effect, 100 complete control
Procedure, shortened: as §2

[6] = tested on: pigweed (Amaranthus retroflexus); experiment: Test C preemergence; conditions: for Plant response rating, Pigweed: scale 0 to 100, 0 no effect, 100 complete control
Procedure, shortened: as §2

[7] = tested on: morningglory (Ipomoea hederacea); experiment: Test C preemergence; conditions: for Plant response rating, Morningglory: scale 0 to 100, 0 no effect, 100 complete control
Procedure, shortened: as §2

kochia (Kochia scoparia) = experiment: Test C preemergence; conditions: for Plant response rating, Kochia: scale 0 to 100, 0 no effect, 100 complete control; for Plant response rating (0 to 100), Kochia: preemergence, visual evaluation after 12 to 14 days
Procedure, shortened: as §2

corn (Zea mays) = experiment: Test C preemergence; conditions: for Plant response rating, Corn: scale 0 to 100, 0 no effect, 100 complete control; for Plant response rating (0 to 100), Corn: preemergence, visual evaluation after 12 to 14 days
Procedure, shortened: as §2

[8] = tested on: giant foxtail (Setaria faberii); experiment: Test C preemergence; conditions: for Plant response rating, Foxtail, Giant: scale 0 to 100, 0 no effect, 100 complete control; for Plant response rating (0 to 100), Foxtail, Giant: preemergence, visual evaluation after 12 to 14 days
Procedure, shortened: as §2

[9] = tested on: bermudagrass (Cynodon dactylon); experiment: Test C preemergence; conditions: for Plant response rating, Bermudagrass: scale 0 to 100, 0 no effect, 100 complete control; for Plant response rating (0 to 100 where 0 is no effect and 100 is complete control), Bermudagrass: preemergence, visual evaluation after 12 to 14 days
Procedure, shortened: as §2

[10] = tested on: johnsongrass (Sorghum halepense); experiment: Test C preemergence; conditions: for Plant response rating, Johnsongrass: scale 0 to 100, 0 no effect, 100 complete control; for Plant response rating (0 to 100), Johnsongrass: preemergence, visual evaluation after 12 to 14 days
Procedure, shortened: as §2

Sunflower [11] = experiment: Test C preemergence; conditions: Rate 125 g/ha; scale 0 to 100, 0 no effect, 100 complete control
soybean (Glycine max) = experiment: Test C preemergence; conditions: for Plant response rating, Soybean: scale 0 to 100, 0 no effect, 100 complete control
Procedure, shortened: as §2

[12] = tested on: cocklebur (Xanthium strumarium); experiment: Test C preemergence; conditions: for Plant response rating, Cocklebur: scale 0 to 100, 0 no effect, 100 complete control; for Plant response rating (0 to 100), Cocklebur: preemergence, visual evaluation after 12 to 14 days
Procedure, shortened: as §2

[13] = tested on: lambsquarters (Chenopodium album); experiment: Test C preemergence; conditions: for Plant response rating, Lambsquarters: scale 0 to 100, 0 no effect, 100 complete control
Procedure, shortened: as §2

[14] = tested on: goosegrass (Eleusine indica); experiment: Test C preemergence; conditions: for Plant response rating, Goosegrass: scale 0 to 100, 0 no effect, 100 complete control; for Plant response rating (0 to 100), Goosegrass: preemergence, visual evaluation after 12 to 14 days
Procedure, shortened: as §2

[15] = tested on: woolly cupgrass (Eriochloa villosa); experiment: Test C preemergence; conditions: for Plant response rating, Cupgrass, Woolly: scale 0 to 100, 0 no effect, 100 complete control; for Plant response rating (0 to 100), Cupgrass, Woolly: preemergence, visual evaluation after 12 to 14 days
Procedure, shortened: as §2

[16] = tested on: crabgrass (Digitaria sanguinalis); experiment: Test C preemergence; conditions: for Plant response rating, Crabgrass: scale 0 to 100, 0 no effect, 100 complete control; for Plant response rating (0 to 100), Crabgrass: preemergence, visual evaluation after 12 to 14 days
Procedure, shortened: as §2

[17] = tested on: velvetleaf (Abutilon theophrasti); experiment: Test C preemergence; conditions: for Plant response rating, Velvetleaf: scale 0 to 100, 0 no effect, 100 complete control
Procedure, shortened: as §2

Sunflower [18] = experiment: Test C preemergence; conditions: Rate 500 g/ha, visual evaluation after 12 to 14 days
[19] = preemergence, Rate 500 g/ha, visual evaluation after 12 to 14 days

Compound: CC(C)Oc1cccc(N2CCC(n3ccc(C(C)C)n3)C2=O)c1 (stereo not drawn) [Compound 82]
- Ducksalad plant response rating ([1]; Rate 250 g/ha): 90
- Ducksalad plant response rating ([1]; Rate 500 g/ha): 100
- Plant response rating, Ducksalad ([1]; Rate 62 g/ha): 20
- Plant response rating, Ducksalad ([1]; Rate 125 g/ha): 30
- Flatsedge plant response rating ([2]; Rate 250 g/ha): 90
- Flatsedge plant response rating ([2]; Rate 500 g/ha): 100
- Plant response rating, Flatsedge ([2]; Rate 62 g/ha): 90
- Plant response rating, Flatsedge ([2]; Rate 125 g/ha): 90
- Barnyardgrass plant response rating ([3]; Rate 250 g/ha): 100
- Barnyardgrass plant response rating ([3]; Rate 500 g/ha): 100
- Plant response rating, Barnyardgrass ([3]; Rate 62 g/ha): 30
- Plant response rating, Barnyardgrass ([3]; Rate 125 g/ha): 60
- Plant response rating, Nightshade (Nightshade; Rate 62 g/ha): 0
- Plant response rating, Nightshade (Nightshade; Rate 125 g/ha): 10
- Plant response rating, Nightshade (Nightshade; Rate 250 g/ha): 30
- Plant response rating, Surinam grass ([4]; Rate 62 g/ha): 10
- Plant response rating, Surinam grass ([4]; Rate 125 g/ha): 80
- Plant response rating (0 to 100), Surinam grass ([4]; Rate 250 g/ha): 70
- Plant response rating (0 to 100), Surinam grass ([4]; Rate 500 g/ha): 100
- Plant response rating, Nutsedge ([5]; Rate 62 g/ha): 0
- Plant response rating, Nutsedge ([5]; Rate 125 g/ha): 0
- Plant response rating (0 to 100), Nutsedge [5, 19]: 40
- Plant response rating, Nutsedge ([5]; preemergence, Rate 250 g/ha): 10
- Plant response rating, Pigweed ([6]; Rate 125 g/ha): 70
- Plant response rating (0 to 100), Pigweed [6, 19]: 0
- Plant response rating, Pigweed ([6]; preemergence, Rate 250 g/ha): 100
- Plant response rating, Morningglory ([7]; Rate 62 g/ha): 20
- Plant response rating, Morningglory ([7]; Rate 125 g/ha): 10
- Plant response rating (0 to 100), Morningglory [7, 19]: 80
- Plant response rating, Morningglory ([7]; preemergence, Rate 250 g/ha): 20
- Plant response rating, Kochia (kochia (Kochia scoparia); Rate 62 g/ha): 0
- Plant response rating, Kochia (kochia (Kochia scoparia); Rate 125 g/ha): 90
- Plant response rating (0 to 100), Kochia (kochia (Kochia scoparia); Rate 250 g/ha): 100
- Plant response rating (0 to 100), Kochia (kochia (Kochia scoparia); Rate 500 g/ha): 100
- Plant response rating, Corn (corn (Zea mays); Rate 62 g/ha): 0
- Plant response rating, Corn (corn (Zea mays); Rate 125 g/ha): 20
- Plant response rating (0 to 100), Corn (corn (Zea mays); Rate 250 g/ha): 10
- Plant response rating (0 to 100), Corn (corn (Zea mays); Rate 500 g/ha): 30
- Plant response rating, Foxtail, Giant ([8]; Rate 62 g/ha): 30
- Plant response rating, Foxtail, Giant ([8]; Rate 125 g/ha): 0
- Plant response rating (0 to 100), Foxtail, Giant ([8]; Rate 250 g/ha): 100
- Plant response rating (0 to 100), Foxtail, Giant ([8]; Rate 500 g/ha): 100
- Plant response rating, Bermudagrass ([9]; Rate 62 g/ha): 100
- Plant response rating, Bermudagrass ([9]; Rate 125 g/ha): 90
- Plant response rating (0 to 100 where 0 is no effect and 100 is complete control), Bermudagrass ([9]; Rate 250 g/ha): 100
- Plant response rating (0 to 100 where 0 is no effect and 100 is complete control), Bermudagrass ([9]; Rate 500 g/ha): 100
- Plant response rating, Johnsongrass ([10]; Rate 62 g/ha): 40
- Plant response rating, Johnsongrass ([10]; Rate 125 g/ha): 50
- Plant response rating (0 to 100), Johnsongrass ([10]; Rate 250 g/ha): 50
- Plant response rating (0 to 100), Johnsongrass ([10]; Rate 500 g/ha): 60
- Plant response rating, Sunflower (Sunflower [11]): 20
- Plant response rating, Soybean (soybean (Glycine max); Rate 125 g/ha): 10
- Plant response rating (0 to 100), Soybean (soybean (Glycine max); [19]): 60
- Plant response rating, Soybean (soybean (Glycine max); preemergence, Rate 250 g/ha): 30
- Plant response rating, Cocklebur ([12]; Rate 62 g/ha): 0
- Plant response rating, Cocklebur ([12]; Rate 125 g/ha): 10
- Plant response rating (0 to 100), Cocklebur ([12]; Rate 250 g/ha): 20
- Plant response rating (0 to 100), Cocklebur ([12]; Rate 500 g/ha): 40
- Plant response rating, Lambsquarters ([13]; Rate 62 g/ha): 100
- Plant response rating, Lambsquarters ([13]; Rate 125 g/ha): 100
- Plant response rating (0 to 100), Lambsquarters [13, 19]: 100
- Plant response rating, Lambsquarters ([13]; preemergence, Rate 250 g/ha): 100
- Plant response rating, Goosegrass ([14]; Rate 62 g/ha): 90
- Plant response rating, Goosegrass ([14]; Rate 125 g/ha): 100
- Plant response rating (0 to 100), Goosegrass ([14]; Rate 250 g/ha): 100
- Plant response rating (0 to 100), Goosegrass ([14]; Rate 500 g/ha): 100
- Plant response rating, Cupgrass, Woolly ([15]; Rate 62 g/ha): 70
- Plant response rating, Cupgrass, Woolly ([15]; Rate 125 g/ha): 90
- Plant response rating (0 to 100), Cupgrass, Woolly ([15]; Rate 250 g/ha): 90
- Plant response rating (0 to 100), Cupgrass, Woolly ([15]; Rate 500 g/ha): 100
- Plant response rating, Crabgrass ([16]; Rate 62 g/ha): 100
- Plant response rating, Crabgrass ([16]; Rate 125 g/ha): 100
- Plant response rating (0 to 100), Crabgrass ([16]; Rate 250 g/ha): 100
- Plant response rating (0 to 100), Crabgrass ([16]; Rate 500 g/ha): 100
- Plant response rating, Velvetleaf ([17]; Rate 125 g/ha): 10
- Plant response rating (0 to 100), Velvetleaf [17, 19]: 30
- Plant response rating, Velvetleaf ([17]; preemergence, Rate 250 g/ha): 10
- Plant response rating (0 to 100), Sunflower (Sunflower [18]): 80
